system: ATF4 luciferase reporter; assay: ATF4-Luc assay in HEK293T cells carrying the ATF4 luciferase reporter (in vitro model of VWMD); format: cell-based, human; conditions: Homo sapiens, HEK-293T, 1 μg/mL tunicamycin, 7 hours, luminescence (One Glo)
Method: In order to test exemplary compounds of the invention in a cellular context, a stable VWMD cell line was first constructed. The ATF4 reporter was prepared by fusing the human full-length ATF4 5′-UTR (NCBI Accession No. BC022088.2) in front of the firefly luciferase (FLuc) coding sequence lacking the initiator methionine as described in Sidrauski et al (eLife 2013). The construct was used to produce recombinant retroviruses using standard methods and the resulting viral supernatant was used to transduce HEK293T cells, which were then subsequently selected with puromycin to generate a stable cell line.
HEK293T cells carrying the ATF4 luciferase reporter were plated on polylysine coated 384-well plates (Greiner Bio-one) at 30,000 cells per well. Cells were treated the next day with 1 μg/mL tunicamycin and 200 nM of a compound of Formula (I) for 7 hours. Luminescence was measured using One Glo (Promega) as specified by the manufacturer. Cells were maintained in DMEM with L-glutamine supplemented with 10% heat-inactivated FBS (Gibco) and Antibiotic-Antimycotic solution (Gibco).
Table 2 below summarizes the EC50 data obtained using the ATF4-Luc assay for exemplary compounds of the invention.

Row | SMILES | EC50 [nM]
1 | Cc1ccc(CNC(=O)C23CC(NC(=O)COc4ccc(Cl)c(F)c4)(C2)C3)cn1 [Compound 155, 3-[2-(4-chloro-3-fluorophenoxy)acetamido]-N-[(6-methylpyridin-3-yl)methyl]bicyclo[1.1.1]pentane-1-carboxamide] | > 2000
2 | O=C(COc1ccc(Cl)c(F)c1)NC12CC(C(=O)NCc3ccc(C(F)(F)F)cc3)(C1)C2 [Compound 156, 3-[2-(4-chloro-3-fluorophenoxy)acetamido]-N-{[4-(trifluoromethyl)phenyl]methyl}bicyclo[1.1.1]pentane-1-carboxamide] | < 250
3 | COc1ccc(CNC(=O)C23CC(NC(=O)COc4ccc(Cl)c(F)c4)(C2)C3)cn1 [Compound 157, 3-[2-(4-chloro-3-fluorophenoxy)acetamido]-N-[(6-methoxypyridin-3-yl)methyl]bicyclo[1.1.1]pentane-1-carboxamide] | > 2000
4 | Cc1ccc(OCCNC(=O)C23CC(NC(=O)COc4ccc(Cl)c(F)c4)(C2)C3)cc1C [Compound 158, 3-[2-(4-chloro-3-fluorophenoxy)acetamido]-N-[2-(3,4-dimethylphenoxy)ethyl]bicyclo[1.1.1]pentane-1-carboxamide] | < 250
5 | Cc1noc(CNC(=O)C23CC(NC(=O)COc4ccc(Cl)c(F)c4)(C2)C3)n1 [Compound 159, 3-[2-(4-chloro-3-fluorophenoxy)acetamido]-N-[(3-methyl-1,2,4-oxadiazol-5-yl)methyl]bicyclo[1.1.1]pentane-1-carboxamide] | > 2000
6 | Cc1cc(CNC(=O)C23CC(NC(=O)COc4ccc(Cl)c(F)c4)(C2)C3)c(C)o1 [Compound 160, 3-[2-(4-chloro-3-fluorophenoxy)acetamido]-N-[(2,5-dimethylfuran-3-yl)methyl]bicyclo[1.1.1]pentane-1-carboxamide] | > 2000
7 | O=C(COc1ccc(Cl)c(F)c1)NC12CC(C(=O)NCc3cccc(OC(F)(F)F)c3)(C1)C2 [Compound 161, 3-[2-(4-chloro-3-fluorophenoxy)acetamido]-N-{[3-(trifluoromethoxy)phenyl]methyl}bicyclo[1.1.1]pentane-1-carboxamide] | > 2000
8 | O=C(COc1ccc(Cl)c(F)c1)NC12CC(C(=O)NCc3ccccc3)(C1)C2 [Compound 162, N-benzyl-3-[2-(4-chloro-3-fluorophenoxy)acetamido]bicyclo[1.1.1]pentane-1-carboxamide] | > 2000
9 | O=C(COc1ccc(Cl)c(F)c1)NC12CC(C(=O)NCc3c(Cl)cccc3Cl)(C1)C2 [Compound 163, 3-[2-(4-chloro-3-fluorophenoxy)acetamido]-N-[(2,6-dichlorophenyl)methyl]bicyclo[1.1.1]pentane-1-carboxamide] | > 2000
10 | Cc1ccncc1CNC(=O)C12CC(NC(=O)COc3ccc(Cl)c(F)c3)(C1)C2 [Compound 165, 3-[2-(4-chloro-3-fluorophenoxy)acetamido]-N-[(4-methylpyridin-3-yl)methyl]bicyclo[1.1.1]pentane-1-carboxamide] | > 2000
11 | Cc1cccc(CNC(=O)C23CC(NC(=O)COc4ccc(Cl)c(F)c4)(C2)C3)c1 [Compound 166, 3-[2-(4-chloro-3-fluorophenoxy)acetamido]-N-[(3-methylphenyl)methyl]bicyclo[1.1.1]pentane-1-carboxamide] | > 2000
12 | CC(C)(C)c1ccc(CNC(=O)C23CC(NC(=O)COc4ccc(Cl)c(F)c4)(C2)C3)cc1 [Compound 167, N-[(4-tert-butylphenyl)methyl]-3-[2-(4-chloro-3-fluorophenoxy)acetamido]bicyclo[1.1.1]pentane-1-carboxamide] | > 2000
13 | Cc1ccc(CNC(=O)C23CC(NC(=O)COc4ccc(Cl)c(F)c4)(C2)C3)nc1 [Compound 168, 3-[2-(4-chloro-3-fluorophenoxy)acetamido]-N-[(5-methylpyridin-2-yl)methyl]bicyclo[1.1.1]pentane-1-carboxamide] | 1000 to 2000
14 | O=C(COc1ccc(Cl)c(F)c1)NC12CC(C(=O)NCc3ccc(OC(F)F)cc3)(C1)C2 [Compound 169, 3-[2-(4-chloro-3-fluorophenoxy)acetamido]-N-{[4-(difluoromethoxy)phenyl]methyl}bicyclo[1.1.1]pentane-1-carboxamide] | 500 to 1000
15 | O=C(COc1ccc(Cl)c(F)c1)NC12CC(C(=O)NCc3cnoc3)(C1)C2 [Compound 170, 3-[2-(4-chloro-3-fluorophenoxy)acetamido]-N-[(1,2-oxazol-4-yl)methyl]bicyclo[1.1.1]pentane-1-carboxamide] | > 2000
16 | CC(Cc1ccc(F)cc1)NC(=O)C12CC(NC(=O)COc3ccc(Cl)c(F)c3)(C1)C2 (stereo not shown) [Compound 171, 3-[2-(4-chloro-3-fluorophenoxy)acetamido]-N-[1-(4-fluorophenyl)propan-2-yl]bicyclo[1.1.1]pentane-1-carboxamide] | 1000 to 2000

Row | SMILES | EC50 [nM]
17 | CC(NC(=O)C12CC(NC(=O)COc3ccc(Cl)c(F)c3)(C1)C2)c1ccccc1 (stereo not shown) [Compound 172, 3-[2-(4-chloro-3-fluorophenoxy)acetamido]-N-(1-phenylethyl)bicyclo[1.1.1]pentane-1-carboxamide] | > 2000
18 | COc1ccc(CNC(=O)C23CC(NC(=O)COc4ccc(Cl)c(F)c4)(C2)C3)cc1F [Compound 173, 3-[2-(4-chloro-3-fluorophenoxy)acetamido]-N-[(3-fluoro-4-methoxyphenyl)methyl]bicyclo[1.1.1]pentane-1-carboxamide] | > 2000
19 | Cc1ccc(F)c(CNC(=O)C23CC(NC(=O)COc4ccc(Cl)c(F)c4)(C2)C3)c1 [Compound 174, 3-[2-(4-chloro-3-fluorophenoxy)acetamido]-N-[(2-fluoro-5-methylphenyl)methyl]bicyclo[1.1.1]pentane-1-carboxamide] | > 2000
20 | CN(Cc1ccccc1)C(=O)C12CC(NC(=O)COc3ccc(Cl)c(F)c3)(C1)C2 [Compound 175, N-benzyl-3-[2-(4-chloro-3-fluorophenoxy)acetamido]-N-methylbicyclo[1.1.1]pentane-1-carboxamide] | > 2000
21 | Cc1csc(CNC(=O)C23CC(NC(=O)COc4ccc(Cl)c(F)c4)(C2)C3)n1 [Compound 176, 3-[2-(4-chloro-3-fluorophenoxy)acetamido]-N-[(4-methyl-1,3-thiazol-2-yl)methyl]bicyclo[1.1.1]pentane-1-carboxamide] | > 2000
22 | Cc1cnc(CNC(=O)C23CC(NC(=O)COc4ccc(Cl)c(F)c4)(C2)C3)o1 [Compound 177, 3-[2-(4-chloro-3-fluorophenoxy)acetamido]-N-[(5-methyl-1,3-oxazol-2-yl)methyl]bicyclo[1.1.1]pentane-1-carboxamide] | > 2000
23 | Cc1cnc(CNC(=O)C23CC(NC(=O)COc4ccc(Cl)c(F)c4)(C2)C3)s1 [Compound 178, 3-[2-(4-chloro-3-fluorophenoxy)acetamido]-N-[(5-methyl-1,3-thiazol-2-yl)methyl]bicyclo[1.1.1]pentane-1-carboxamide] | > 2000
24 | Cn1ccc(CNC(=O)C23CC(NC(=O)COc4ccc(Cl)c(F)c4)(C2)C3)n1 [Compound 179, 3-[2-(4-chloro-3-fluorophenoxy)acetamido]-N-[(1-methyl-1H-pyrazol-3-yl)methyl]bicyclo[1.1.1]pentane-1-carboxamide] | > 2000
25 | O=C(COc1ccc(Cl)c(F)c1)NC12CC(C(=O)NCc3ccc(F)c(C(F)(F)F)c3)(C1)C2 [Compound 180, 3-[2-(4-chloro-3-fluorophenoxy)acetamido]-N-{[4-fluoro-3-(trifluoromethyl)phenyl]methyl}bicyclo [1.1.1]pentane-1-carboxamide] | > 2000
26 | O=C(COc1ccc(Cl)c(F)c1)NC12CC(C(=O)NCc3c(F)cc(Cl)cc3F)(C1)C2 [Compound 181, N-[(4-chloro-2,6-difluorophenyl)methyl]-3-[2-(4-chloro-3-fluorophenoxy)acetamido]bicyclo[1.1.1]pentane-1-carboxamide] | > 2000
27 | CCOc1ccccc1CNC(=O)C12CC(NC(=O)COc3ccc(Cl)c(F)c3)(C1)C2 [Compound 182, 3-[2-(4-chloro-3-fluorophenoxy)acetamido]-N-[(2-ethoxyphenyl)methyl]bicyclo[1.1.1]pentane-1-carboxamide] | > 2000
28 | C[C@H](NC(=O)C12CC(NC(=O)COc3ccc(Cl)c(F)c3)(C1)C2)c1ccc(Cl)cc1 [Compound 183, 3-[2-(4-chloro-3-fluorophenoxy)acetamido]-N-[(1S)-1-(4-chlorophenyl)ethyl]bicyclo[1.1.1]pentane-1-carboxamide] | > 2000
29 | Cn1nccc1CNC(=O)C12CC(NC(=O)COc3ccc(Cl)c(F)c3)(C1)C2 [Compound 184, 3-[2-(4-chloro-3-fluorophenoxy)acetamido]-N-[(1-methyl-1H-pyrazol-5-yl)methyl]bicyclo[1.1.1]pentane-1-carboxamide] | > 2000
30 | O=C(COc1ccc(Cl)c(F)c1)NC12CC(C(=O)NCc3ccc(F)c(F)c3)(C1)C2 [Compound 185, 3-[2-(4-chloro-3-fluorophenoxy)acetamido]-N-[(3,4-difluorophenyl)methyl]bicyclo[1.1.1]pentane-1-carboxamide] | > 2000
31 | Cn1ccnc1CNC(=O)C12CC(NC(=O)COc3ccc(Cl)c(F)c3)(C1)C2 [Compound 186, 3-[2-(4-chloro-3-fluorophenoxy)acetamido]-N-[(1-methyl-1H-imidazol-2-yl)methyl]bicyclo[1.1.1]pentane-1-carboxamide] | > 2000

— patent publication US10836725B2, “Modulators of the integrated stress pathway” (Calico Life Sciences LLC, priority 2016, dated 2020)
